Values joined by “and” are separate entries in the source; they are usually repeats but may differ in a detail not shown here. Equal entries are not always repeated. Where two headings read alike, the source gives them in different places.
Experiments:
Rag2-/-γc-/- mice = test: Toxicity assay: hematological and liver parameters, liver histology; assay type: in vivo, mouse; conditions: for ALT (Counts (U/L)) / AST (Counts (U/L)) / Bilirubin (Counts (mg/dl)) / HDL (Counts (mmol/l)) / LCLC3 (Counts (mmol/l)) / UREA (Counts (mg/dl)) / Hematocrit (Counts (%)) / Hemoglobin (Counts (g/dl)) / PLT (Counts (K/O)) / RBC (Counts (K/O)) / WBC (Counts (K/O)): healthy Rag2-/-γc-/- mice, individual mice, 10 mg/kg; for ALT (Counts (U/L)) / AST (Counts (U/L)) / Bilirubin (Counts (mg/dl)) / HDL (Counts (mmol/l)) / LCLC3 (Counts (mmol/l)) / UREA (Counts (mg/dl)): 10 mg/kg i.p. daily for 3 weeks then 7-day washout; for Hematocrit (Counts (%)) / Hemoglobin (Counts (g/dl)) / PLT (Counts (K/O)) / RBC (Counts (K/O)) / WBC (Counts (K/O)): 10 mg/kg i.p. daily for 3 weeks
Method: After treating Rag2^−/−γc^−/− mice with i.p. […] Hematological and liver parameters were measured.
Hematological parameters, including white blood cells, red blood cells, platelet count, hemoglobin and hematocrit, were measured on a Hemavet Hematology Analyzer (Drew Scientific). Liver enzymes (albumin, alkaline phosphatase, aspartate transaminase, alanine transaminase), cholesterol, bilirubin, urea and bile acid levels were analyzed from mice serum using a C311 Cobas Analyzer (Roche Diagnostics).
Mice livers were fixed in paraformaldehyde at 4% for 6–8 h, washed twice with saline solution and stored in 70% ethanol. Samples were included in paraffin, and 3-µm serial sections were cut, deparaffinated, and stained with hematoxylin–eosin.

HL-60 = test: RNA-seq; assay type: cell-based, human
Method: Transcriptomic analyses were performed following low-input 3′ end RNA sequencing approximation for characterization of transcriptional changes in ML-2 and HL-60 samples treated with CM-444 and CM-1758.
Low-input 3′ end RNA-seq was performed as previously described[53],[54] with minor modifications. Briefly, RNA from 0.1 ×10^6 cells from each experimental condition was purified using a Dynabeads mRNA DIRECT Purification Kit (Thermo Fisher Scientific). For barcoded cDNA generation, polyadenylated RNA was retrotranscribed using an Affinity Script cDNA Synthesis Kit (Agilent Technologies), and barcoded primers also harboring T7 promoter and a partial Read2 sequence for illumine sequencing (CGATTGAGGCCGGTAATACGACTCACTATAGGGGGCGACGTGTGCTCTTCCGATCTXXXXXXNNNNTTTTTTTTTTTTTTTTTTTT, where XXXXXX is the cell barcode and NNN is a unique molecular identifier or UMI, which represents the same initial RNA molecule for future quantification). At this point, the samples were pooled (≤6 samples per pool) at equimolar ratios assessed by q-PCR.
The samples were then treated with Exonuclease I (Thermo Fisher Scientific following a 1.2x positive SPRI-selection. Second-strand cDNA synthesis was then performed using a NEBNext Ultra II Directional RNA Second-Strand Synthesis Module (New England Biolabs) for 2 h at 16 °C, followed by a 1.4x positive solid-phase reverse immobilization (SPRI) cleanup. The samples were linearly amplified by T7 in vitro transcription using a T7 RNA Polymerase (New England Biolabs) for 16 h at 37 °C. After DNAse treatment (TURBO DNAse I, Thermo Fisher Scientific) for 15 min at 37 °C to remove dsDNA, samples were cleaned with a positive 1.2x SPRI-selection. RNA size, quality, and concentration were determined by analysis with a Qubit Fluorometer (Termo Fisher Scientific) and TapeStation (Agilent 4200 TapeSation System, Agilent Technologies). If necessary, RNA was fragmented in 200- to 300-bp fragments using Zn2+divalent cations followed by a 2x positive SPRI cleanup. Fragmented RNA was dephosphorylated using FastAP Thermosensitive Alkaline Phosphatase (Thermo Fisher Scientific) for 10 min at 37 °C to enhance RNA ligation yield. In this step, a partial Read1 ([…]) sequence for illumine sequencing was ligated to the 3′ end of the fragmented RNA using T4 RNA Ligase I (New England Biolabs). After a 1.5x positive SPRI cleanup, the RNA product was retrotranscribed using an Affinity Script cDNA Synthesis Kit (Agilent Technologies) and a specific retrotranscription primer ([…]). The library was then purified by 1.5x positive SPRI cleanup, and the yield of the previous steps was determined by q-PCR. Finally, PCR using KAPA HiFi HotStar Ready Mix (Kapa Biosystems) was performed for second-strand cDNA synthesis, illumine primers addition (Read1-P5: […] and Read2-P7: […]) and library amplification using the recommended cycle numbers to minimize over-amplification. The product was purified by a 0.7x positive SPRI cleanup. The quality of the final library was determined by q-PCR (based on the threshold cycle, or Ct, obtained for GAPDH (Fw: […], Rv: […]) or GUSB (Fw: […], Rv: […]) housekeeping genes calibrated per individual set of samples, Qubit Fluorometer (Thermo Fisher Scientific) and TapeStation (Agilent 4200 TapeStation System, Agilent Technologies). All libraries were pooled at equimolar ratios and sequenced on a NextSeq500 (Illumina) using 60 bp single-end reads at a minimum sequence depth of 10 million reads per sample.
Raw reads were demultiplexed using bcl2fastq2 Conversion Software v2.19 (Illumina) to convert base call (BCL) files into FastQ files. The quality control of FastQ files was performed using FastQC (Bioinformatics Babraham Institute). Sequencing reads were aligned to hg19 human reference using Bowtie 2 (Johns Hopkins University) and quantified using quant3p script (github.com/ctlab/quant3p). […]

[1] = HL-60, 25% GI50, 12 h, log2FC +/-1

COc1cc2nc(-c3cc(C)oc3C)cc(NCC3CCN(c4ncc(C(=O)NO)cn4)CC3)c2cc1OC [CM-1758, 2-[4-[[[2-(2,5-dimethyl-3-furyl)-6,7-dimethoxy-4-quinolyl]amino]methyl] -1-piperidyl]pyrimidine-5-carbohydroxamic acid]
tolerability (Rag2-/-γc-/- mice; 10 mg/kg i.p. daily over 3 weeks, 1-week washout, Rag2-/-γc-/- mice): well tolerated | ALT (Counts (U/L)) (Rag2-/-γc-/- mice; Week 3): 17 U/L and 4.5 U/L and 5.5 U/L and 9 U/L | AST (Counts (U/L)) (Rag2-/-γc-/- mice; Week 3): 148.5 U/L and 43 U/L and 38.5 U/L and 74 U/L | Bilirubin (Counts (mg/dl)) (Rag2-/-γc-/- mice; Week 3): 0 mg/dl (2×) and 0.05 mg/dl (2×) | HDL (Counts (mmol/l)) (Rag2-/-γc-/- mice; Week 3): 3.2 mmol/L and 2.05 mmol/L and 0.6 mmol/L and 2.55 mmol/L | LCLC3 (Counts (mmol/l)) (Rag2-/-γc-/- mice; Week 3): 0.2 mmol/l (2×) and 0.1 mmol/l (2×) | UREA (Counts (mg/dl)) (Rag2-/-γc-/- mice; Week 3): 20.7 mg/dL and 26.4 mg/dL and 33.1 mg/dL and 24.1 mg/dL | ALT (Counts (U/L)) (Rag2-/-γc-/- mice; Week 4): 14.1 U/L and 27 U/L and 21.9 U/L and 7.5 U/L | AST (Counts (U/L)) (Rag2-/-γc-/- mice; Week 4): 46.8 U/L and 244.8 U/L and 155.7 U/L and 62.1 U/L | Bilirubin (Counts (mg/dl)) (Rag2-/-γc-/- mice; Week 4): 0 mg/dL and 0.06 mg/dL and 0.12 mg/dL and 0.03 mg/dL | HDL (Counts (mmol/l)) (Rag2-/-γc-/- mice; Week 4): 2.61 mmol/L and 2.43 mmol/L and 2.31 mmol/L and 2.37 mmol/L | LCLC3 (Counts (mmol/l)) (Rag2-/-γc-/- mice; Week 4): 0.21 mmol/l (3×) and 0.27 mmol/l | UREA (Counts (mg/dl)) (Rag2-/-γc-/- mice; Week 4): 26.61 mg/dl and 26.58 mg/dl (2×) and 31.89 mg/dl | Hematocrit (Counts (%)) (Rag2-/-γc-/- mice; 7d Washout): 51% and 54.2% and 45.9% and 52.8% | Hemoglobin (Counts (g/dl)) (Rag2-/-γc-/- mice; 7d Washout): 17.7 g/dL and 17.6 g/dL and 16.1 g/dL and 17.4 g/dL | PLT (Counts (K/O)) (Rag2-/-γc-/- mice; 7d Washout): 1572 K/O and 1571 K/O and 1050 K/O and 1405 K/O | RBC (Counts (K/O)) (Rag2-/-γc-/- mice; 7d Washout): 9.8 K/O and 10.2 K/O and 8.86 K/O and 10.25 K/O | WBC (Counts (K/O)) (Rag2-/-γc-/- mice; 7d Washout): 1.4 K/O and 1.52 K/O and 3.74 K/O and 2.44 K/O | Hematocrit (Counts (%)) (Rag2-/-γc-/- mice; Week 1): 48.1% and 47% and 47.7% and 46.6% | Hemoglobin (Counts (g/dl)) (Rag2-/-γc-/- mice; Week 1): 17.8 g/dL and 17.5 g/dL and 18 g/dL and 17.7 g/dL | PLT (Counts (K/O)) (Rag2-/-γc-/- mice; Week 1): 866 K/O and 806 K/O and 880 K/O and 983 K/O | RBC (Counts (K/O)) (Rag2-/-γc-/- mice; Week 1): 9.36 K/O and 9.79 K/O and 10.18 K/O (2×) | WBC (Counts (K/O)) (Rag2-/-γc-/- mice; Week 1): 1.68 K/O and 1.52 K/O and 1.6 K/O and 1.16 K/O | Hematocrit (Counts (%)) (Rag2-/-γc-/- mice; Week 2): 51.3% and 48.5% and 45.7% and 50.4% | Hemoglobin (Counts (g/dl)) (Rag2-/-γc-/- mice; Week 2): 18.2 g/dL and 18 g/dL and 17.2 g/dL and 17.7 g/dL | PLT (Counts (K/O)) (Rag2-/-γc-/- mice; Week 2): 1496 K/O and 1628 K/O and 1531 K/O and 1908 K/O | RBC (Counts (K/O)) (Rag2-/-γc-/- mice; Week 2): 10.07 K/O and 9.97 K/O and 9.38 K/O and 10.01 K/O | WBC (Counts (K/O)) (Rag2-/-γc-/- mice; Week 2): 10.02 K/O and 4.3 K/O and 5.26 K/O and 5.18 K/O | Hematocrit (Counts (%)) (Rag2-/-γc-/- mice; Week 3): 47.2% and 36.5% and 46.9% and 44.2% | Hemoglobin (Counts (g/dl)) (Rag2-/-γc-/- mice; Week 3): 17.4 g/dL and 13.4 g/dL and 17.3 g/dL and 16.8 g/dL | PLT (Counts (K/O)) (Rag2-/-γc-/- mice; Week 3): 870 K/O and 786 K/O and 1040 K/O and 1436 K/O | RBC (Counts (K/O)) (Rag2-/-γc-/- mice; Week 3): 9.53 K/O and 7.63 K/O and 9.68 K/O and 9.71 K/O | WBC (Counts (K/O)) (Rag2-/-γc-/- mice; Week 3): 3.3 K/O and 2.28 K/O and 4.16 K/O and 1.16 K/O | deregulated genes (RNA-seq) (HL-60): 3299 | down-regulated genes (RNA-seq) (HL-60): 1610 | up-regulated genes (RNA-seq) (HL-60): 1589 | deregulated genes (RNA-seq) (HL-60; [1]): 1278 | down-regulated genes (RNA-seq) (HL-60; [1]): 409 | up-regulated genes (RNA-seq) (HL-60; [1]): 869 | ABI1 Log2FC (HL-60; HL-60, RNA-Seq): 0.03309 | CBFB Log2FC (HL-60; HL-60, RNA-Seq): -0.1665 | CCR2 Log2FC (HL-60; HL-60, RNA-Seq): 0.8564 | CD44 Log2FC (HL-60; HL-60, RNA-Seq): -0.4326 | CDK6 Log2FC (HL-60; HL-60, RNA-Seq): 0.05972 | CEBPB Log2FC (HL-60; HL-60, RNA-Seq): 0.4359 | CSF3R Log2FC (HL-60; HL-60, RNA-Seq): 0.06074 | CTNNBIP1 Log2FC (HL-60; HL-60, RNA-Seq): 1.186 | ELANE Log2FC (HL-60; HL-60, RNA-Seq): -1.7362 | EP300 Log2FC (HL-60; HL-60, RNA-Seq): -0.1778 | FLI1 Log2FC (HL-60; HL-60, RNA-Seq): -0.2831 | FUT4 Log2FC (HL-60; HL-60, RNA-Seq): -1.407 | GATA2 Log2FC (HL-60; HL-60, RNA-Seq): 0.09944 | HCLS1 Log2FC (HL-60; HL-60, RNA-Seq): -0.1237 | ITGA4 Log2FC (HL-60; HL-60, RNA-Seq): -1.197 | ITGAM Log2FC (HL-60; HL-60, RNA-Seq): 2.404 | ITGB1 Log2FC (HL-60; HL-60, RNA-Seq): 0.9626 | ITGB2 Log2FC (HL-60; HL-60, RNA-Seq): 0.07825 | JUN Log2FC (HL-60; HL-60, RNA-Seq): 0.9774 | MPO Log2FC (HL-60; HL-60, RNA-Seq): -2.297 | MYC Log2FC (HL-60; HL-60, RNA-Seq): -2.139 | NFE2 Log2FC (HL-60; HL-60, RNA-Seq): -0.3801 | PIR Log2FC (HL-60; HL-60, RNA-Seq): 1.629 | RUNX1 Log2FC (HL-60; HL-60, RNA-Seq): -0.01075 | SOX4 Log2FC (HL-60; HL-60, RNA-Seq): 0.2112 | SPI1 Log2FC (HL-60; HL-60, RNA-Seq): -0.6241 | TESC Log2FC (HL-60; HL-60, RNA-Seq): -0.09114 | TRIB1 Log2FC (HL-60; HL-60, RNA-Seq): -0.4986 | ZBTB46 Log2FC (HL-60; HL-60, RNA-Seq): 0.4368 | ZFP36L1 Log2FC (HL-60; HL-60, RNA-Seq): 1.334
